Data taken from patent US20230331685A1, “HERBICIDAL COMPOUNDS AND METHODS OF USE THEREOF” (AG Plenus Ltd, priority 2020, published 2023).

Tests used:
Assay type in all cases: in vivo
Ambrosia artemisiifolia [1] = assay: LTP post-emergence greenhouse test; settings: Dosage 2000 g/ha
Setaria viridis [2] = assay: LTP pre-emergence greenhouse test; settings: Dosage 2000 g/ha
Protocol: (§1) A basic panel of 8 weed species (Table 3) were sowed in 4×4×7 cm plastic pots containing inert sand (Sweet sand), intensively washed using osmosis water. Each specie was sowed in a separate pot. In each pot 10-15 seeds were sowed according to the specie viability. Sowing was performed one day before application. The plants were grown for 21 days in a controlled greenhouse (26±2° C. day 20±2° C. night). Hood irrigation (tap water+Shefer 5:3:8 8 mM) was given at a 50% water content by weight. Compounds were soluble in water (DDW), and commercial herbicide control was soluble in formulation B (Table 4). Application was conducted with an industrial sprayer (TeeJet 6502E nozzle) at a rate of 2 kg/ha and spray volume of […]. Pre-emergence advanced dose response experiment application was conducted at six rates between 1-0.0312 kg/ha and spray volume of […]. Percentage of emergence was evaluated at 15 DAA. Visual phenotyping was recorded using a scale of 0-6 (0: no visible effect, 6: maximum effect) at 18 DAA. All experiments included an untreated control, a solvent control and a positive control (commercial herbicide A.I.). […] Statistical analysis for plant emergence determined by % emergence ≥50 and T test (pval≤0.05), as well as Wilcox test (pval≤0.05).

Poa annua = assay: LTP pre-emergence greenhouse test; settings: Dosage 2000 g/ha
Protocol: as §1

Ambrosia artemisiifolia [3] = assay: LTP pre-emergence greenhouse test; settings: Dosage 2000 g/ha
Protocol: as §1

Matricaria chamomilla = assay: LTP pre-emergence greenhouse test; settings: Dosage 2000 g/ha
Protocol: as §1

Eragrostis tef [4] = assay: LTP pre-emergence greenhouse test; settings: Dosage 2000 g/ha
Protocol: as §1

Sinapis alba = assay: LTP pre-emergence greenhouse test; settings: Dosage 2000 g/ha
Protocol: as §1

Phalaris paradoxa [5] = assay: LTP pre-emergence greenhouse test; settings: Dosage 2000 g/ha
Protocol: as §1

Lolium perenne = assay: LTP pre-emergence greenhouse test; settings: Dosage 2000 g/ha
Protocol: as §1

Alopecurus myosuroides = assay: LTP pre-emergence greenhouse test; settings: Dosage 2000 g/ha
Protocol: as §1

Amaranthus palmeri = assay: LTP pre-emergence greenhouse test; settings: Dosage 2000 g/ha
Protocol: as §1

Abutilon theophrasti = assay: LTP pre-emergence greenhouse test; settings: Dosage 2000 g/ha
Protocol: as §1

Arabidopsis thaliana = assay: LTP pre-emergence greenhouse test; settings: Dosage 2000 g/ha
Protocol: as §1

Phalaris minor = assay: LTP post-emergence greenhouse test; settings: Dosage 2000 g/ha
[6] = test system: monocot and eudicot weeds species; assay: In-planta LTP weed panel, overall assessment; settings: monocot and eudicot weeds species; both post-emergence and pre-emergence; most of the species tested
Setaria viridis [7] = assay: LTP post-emergence greenhouse test; settings: Dosage 2000 g/ha
Digitaria sanguinalis = assay: LTP post-emergence greenhouse test; settings: Dosage 2000 g/ha
Eragrostis tef [8] = assay: LTP post-emergence greenhouse test; settings: Dosage 2000 g/ha
Amaranthus tuberculatus = assay: LTP post-emergence greenhouse test; settings: Dosage 2000 g/ha
Protocol: A basic panel of eight weed species (Table 3) sowed in 4×4×7 cm plastic pots containing a garden mix (klasmann). Each specie was sowed in a separate pot. In each pot, 10-15 seeds were sowed according to the specie viability. Timing of application determined at a 1-2 true leaf stage. The plants grew for 30 days in a controlled greenhouse (26±2° C. day, 20±2° C. night). Hood irrigation (tap water+Shefer 5:3:8 8 mM) was given at a 50% water content by weight. Two days before application, the tested plants thinned down to three plants per pot. Compounds were soluble in water (DDW), and commercial herbicide control was soluble in formulation B (Table 4). Before application, 1% (v/v) crop oil and 0.02% (v/v) surfactant (Tergitol™ 15-S-7) were added to the solution. […] Plants were evaluated at 3 time points (4, 8, 12 days after application (DAA)). At each time point, visual phenotyping was recorded using a scale of 0-6 (0: no visible effect, 6: maximum effect). […]
Post-emergence advanced wide panel experiment included 24 weed species (Table 5). […] Visual phenotyping was recorded at 4, 11, 17 and 20 DAA using a scale of 0-6 (0: no visible effect, 6: maximum effect). […] Statistical analysis for visual phenotyping determined by a median value of ≥3.5 and Fisher test (pval≤0.05). Statistical analysis for dry weight determined by % inhibition ≥50 and T test (pval≤0.05), as well as Wilcox test (pval≤0.05).

Chenopodium album = assay: LTP post-emergence greenhouse test; settings: Dosage 2000 g/ha
Phalaris paradoxa [9] = assay: LTP post-emergence greenhouse test; settings: Dosage 2000 g/ha

C[C@@H](O)[C@@H](N)CCCCC(=O)O [Compound 104, (6S,7R)-6-amino-7-hydroxyoctanoic acid]
Herbicidal activity (In-planta), LTP-Post emergence, Ambrosia artemisiifolia (Ambrosia artemisiifolia [1]): 70-80
Herbicidal activity (In-planta), LTP-Pre emergence, Setaria viridis (Setaria viridis [2]): 100
Herbicidal activity (In-planta), LTP-Pre emergence, Poa annua (Poa annua): 100
Herbicidal activity (In-planta), LTP-Pre emergence, Ambrosia artemisiifolia (Ambrosia artemisiifolia [3]): 0
Herbicidal activity (In-planta), LTP-Pre emergence, Matricaria chamomilla (Matricaria chamomilla): 80
Herbicidal activity (In-planta), LTP-Pre emergence, Eragrostis tef (Eragrostis tef [4]): 100
Herbicidal activity (In-planta), LTP-Pre emergence, Sinapis alba (Sinapis alba): 40-60
Herbicidal activity (In-planta), LTP-Pre emergence, Phalaris paradoxa (Phalaris paradoxa [5]): 60
Herbicidal activity (In-planta), LTP-Pre emergence, Lolium perenne (Lolium perenne): 80
Herbicidal activity (In-planta), LTP-Pre emergence, Alopecurus myosuroides (Alopecurus myosuroides): 40
Herbicidal activity (In-planta), LTP-Pre emergence, Amaranthus palmeri (Amaranthus palmeri): 80
Herbicidal activity (In-planta), LTP-Pre emergence, Abutilon theophrasti (Abutilon theophrasti): 60-80
Herbicidal activity (In-planta), LTP-Pre emergence, Arabidopsis thaliana (Arabidopsis thaliana): 40-80
Herbicidal activity (In-planta), LTP-Post emergence, Phalaris minor (Phalaris minor): 20-30
control of weeds (in words) [6]: excellent control
Herbicidal activity (In-planta), LTP-Post emergence, Setaria viridis (Setaria viridis [7]): 90-95
Herbicidal activity (In-planta), LTP-Post emergence, Digitaria sanguinalis (Digitaria sanguinalis): 95
Herbicidal activity (In-planta), LTP-Post emergence, Eragrostis tef (Eragrostis tef [8]): 60-100
Herbicidal activity (In-planta), LTP-Post emergence, Amaranthus tuberculatus (Amaranthus tuberculatus): 80
Herbicidal activity (In-planta), LTP-Post emergence, Chenopodium album (Chenopodium album): 90
Herbicidal activity (In-planta), LTP-Post emergence, Phalaris paradoxa (Phalaris paradoxa [9]): 80
